The text below walks through data of US5750136A, “Bioadhesive composition and patch” (priority 1995, dated 1998).

Consider `C[C@H]1O[C@@H](O[C@H]2[C@@H](O)C[C@H](O[C@H]3[C@@H](O)C[C@H](O[C@H]4CC[C@@]5(C)[C@H](CC[C@@H]6[C@@H]5C[C@@H](O)[C@]5(C)[C@@H](C7=CC(=O)OC7)CC[C@]65O)C4)O[C@@H]3C)O[C@@H]2C)C[C@H](O)[C@@H]1O` [digoxin], for which, under “from patches of Examples 2-4”, the “bioavailability of digoxin is substantial for a period” value is “at least 24 h”. The “delivery from bioadhesive compositions” value (in words, Table I) is reported as “delivered in a sustained fashion”.
